The values that follow come from ChEMBL document CHEMBL5113470, “Regioselective pyrrolizidine bis-spirooxindoles as efficient anti-amyloidogenic agents” (2022).

The species named for test [1] is Gallus gallus. The experiment in a line: Inhibition of Hen egg white lysozyme fibril formation assessed as shorter fibrils after day 7 by TEM analysis.
For test [2], the species on record is Gallus gallus. The experiment in a line: Inhibition of Hen egg white lysozyme fibril formation assessed as decrease in conformational transition from alpha-helix to beta-sheet after 7 days by Raman spectroscopic assay. To be noted: time 7.0 day.
The species named for test [3] is Gallus gallus. The test is described as follows: Inhibition of Hen egg white lysozyme fibril formation by Circular dichroism. (In general: CD spectra are sensitive to the conformation of chiral molecules.)
Test [4] is described as follows: Inhibition of HEWL fibril-induced toxicity in human HEK cells assessed as cell viability by MTT assay ( Rvb = 55.2 +/- 7.2%). The test is classed as functional. (In general: Formazan colour is commonly taken as a measure of viable cells.)
The species entered for test [5] is Gallus gallus. The experiment in a line: Inhibition of Hen egg white lysozyme fibril formation by Thioflavin T spectroscopic assay relative to control. Further details: concentration or dose not given beside the values. Conditions: dose or concentration not given here.

Activity calls are given as the source filed them. The calls are words filed in the database; no cut-off is given here.

The term inhibition denotes the drop in the measured response relative to a control, in per cent. `COc1cccc(C(=O)[C@@H]2C3CCCN3[C@@]3(C(=O)Nc4ccccc43)[C@@]23C(=O)Nc2ccccc23)c1` (some centres undefined): the inhibition entry in the test filed under Gallus gallus [1], in the test listed under Gallus gallus [2] and in the test listed under Gallus gallus [3] was “Active” each time. The Activity in test [4] is 64.8%. The compound also gave an inhibition in the test listed under Gallus gallus [5] of 20.3%.

In the case of `CC[C@H]1CN2CC[C@]3(C(=O)Nc4ccccc43)[C@@H]2C[C@@H]1/C(=C\OC)C(=O)OC` [RHYNCHOPHYLLINE], the Activity in test [4] came to 77%. The inhibition in the test listed under Gallus gallus [5] was determined as 37.6%.

`O=C(c1ccccc1)[C@@H]1C2CCCN2[C@@]2(C(=O)Nc3ccccc32)[C@@]12C(=O)Nc1ccccc12` (some centres undefined): the inhibition result in the test listed under Gallus gallus [1], in the test listed under Gallus gallus [2] and in the test listed under Gallus gallus [3] was “Active” in each case. Also, the Activity in test [4] is 59.6%. Moreover, in the test listed under Gallus gallus [5], the inhibition amounted to 22.7%.

Regarding `COc1ccc(C(=O)[C@@H]2C3CCCN3[C@@]3(C(=O)Nc4ccccc43)[C@@]23C(=O)Nc2ccccc23)cc1` (some centres undefined), the inhibition entry in the test filed under Gallus gallus [1], in the test filed under Gallus gallus [2] and in the test listed under Gallus gallus [3] was “Active” throughout. For the same compound, the Activity in test [4] is recorded as 47.7%. This compound gave an inhibition in the test filed under Gallus gallus [5] of 45.3%.

`O=C(O[C@@H]1Cc2c(O)cc(O)cc2O[C@@H]1c1cc(O)c(O)c(O)c1)c1cc(O)c(O)c(O)c1` gave an inhibition in the test filed under Gallus gallus [5] of 24.4%.

With `CC[C@H]1CN2CC[C@@]3(C(=O)Nc4ccccc43)[C@@H]2C[C@@H]1/C(=C\OC)C(=O)OC`, the inhibition in the test filed under Gallus gallus [5] was found to be 30.4%.
